Data taken from patent US12168086B2, “Hemostatic devices and methods of use” (priority 2016, dated 2024).
Each block holds one compound with its values, some of them ahead of it.

What was measured:
[1] = time to reach plasma concentrations; details: in vivo
blood clotting = details: in vitro, 1.2 mg of TXA alone
[2] = PBS pH 7.4 without TXA, with TXA 0.05 mg/mL or 5 mg/mL, over 25 hours
myofibroblast formation = details: Ajmal et al. (2003); cited from earlier work

time to reach plasma concentrations [1]: 5 to 15 min
Compound: NC[C@H]1CC[C@H](C(=O)O)CC1 [tranexamic acid]
time to induce blood clotting (blood clotting): about 19 minutes

elution rate from p22-27.5 polymer [2]: not affected by the presence of TXA
Compound: CO[C@H]1/C=C/O[C@@]2(C)Oc3c(C)c(O)c4c(O)c(c(/C=N/N5CCN(C)CC5)c(O)c4c3C2=O)NC(=O)/C(C)=C\C=C\[C@H](C)[C@H](O)[C@@H](C)[C@@H](O)[C@@H](C)[C@H](OC(C)=O)[C@@H]1C [rifampin]

Compound: O=S(=O)([O-])CCS.[Na+] [MESNA, sodium 2-mercaptoethane sulfonate]
myofibroblast formation (myofibroblast formation): diminish myofibroblast formation
